From publication PMC6628435, “Chemical Synthesis, Proper Folding, Nav Channel Selectivity Profile and Analgesic Properties of the Spider Peptide Phlotoxin 1” (Toxins, 2019)
Bridge positions count the residues as written; N and C are the ends. Peptide text beside a SMILES is read from it.

Biological target: T1, hNav1.6 (Homo sapiens, UniProt Q9UQD0)
T1 construct: expressed in transfected cells; host or cells: HEK293 cells
Experiment: Automated patch-clamp dose-response on hNav1.6 expressed in HEK293 cells
Type: cell-based
Settings: 15 to 23 cells per concentration, read-out: calculated IC50
Excerpt: Following our initial screen for the selectivity of synthetic PhlTx1 and the discovery that Nav1.7 was the main target, we decided to further evaluate the activity of PhlTx1. We used a CHO mammalian cell line expressing the human Nav1.7 instead of Xenopus oocytes for the pharmacological evaluation. To this end, we used an automated patch-clamp system, the Nanion syncropatch 384PE, and a standardized robotic method from Beckmann to apply PhlTx1 in the recording chambers and collect the kinetic information of Nav1.7 current from a high number of Nav1.7-expressing cells. The syncropatch 384PE has the potential to record from 384 cells at a time. 100-ms pulses from −100 mV to −10 mV were applied at a frequency of 0.2 Hz and various concentrations of PhlTx1 were applied to the cells. An example of a Nav1.7 current recording is illustrated in Figure 6A along with the effect of 100 nM PhlTx1. […]
PhlTx1 and other Nav1.7-acting toxins were investigated on CHO cells expressing the human Nav1.7 channel using the Automated patch-clamp system from Nanion (München, Germany), the SyncroPatch 384PE. […] Percentages of current inhibitions were measured at the end of a 12- to 15-min application time (12-min for fast blocking toxins; 15-min for slow blocking ones). […]

T1 sequence (Q9UQD0 whole entry): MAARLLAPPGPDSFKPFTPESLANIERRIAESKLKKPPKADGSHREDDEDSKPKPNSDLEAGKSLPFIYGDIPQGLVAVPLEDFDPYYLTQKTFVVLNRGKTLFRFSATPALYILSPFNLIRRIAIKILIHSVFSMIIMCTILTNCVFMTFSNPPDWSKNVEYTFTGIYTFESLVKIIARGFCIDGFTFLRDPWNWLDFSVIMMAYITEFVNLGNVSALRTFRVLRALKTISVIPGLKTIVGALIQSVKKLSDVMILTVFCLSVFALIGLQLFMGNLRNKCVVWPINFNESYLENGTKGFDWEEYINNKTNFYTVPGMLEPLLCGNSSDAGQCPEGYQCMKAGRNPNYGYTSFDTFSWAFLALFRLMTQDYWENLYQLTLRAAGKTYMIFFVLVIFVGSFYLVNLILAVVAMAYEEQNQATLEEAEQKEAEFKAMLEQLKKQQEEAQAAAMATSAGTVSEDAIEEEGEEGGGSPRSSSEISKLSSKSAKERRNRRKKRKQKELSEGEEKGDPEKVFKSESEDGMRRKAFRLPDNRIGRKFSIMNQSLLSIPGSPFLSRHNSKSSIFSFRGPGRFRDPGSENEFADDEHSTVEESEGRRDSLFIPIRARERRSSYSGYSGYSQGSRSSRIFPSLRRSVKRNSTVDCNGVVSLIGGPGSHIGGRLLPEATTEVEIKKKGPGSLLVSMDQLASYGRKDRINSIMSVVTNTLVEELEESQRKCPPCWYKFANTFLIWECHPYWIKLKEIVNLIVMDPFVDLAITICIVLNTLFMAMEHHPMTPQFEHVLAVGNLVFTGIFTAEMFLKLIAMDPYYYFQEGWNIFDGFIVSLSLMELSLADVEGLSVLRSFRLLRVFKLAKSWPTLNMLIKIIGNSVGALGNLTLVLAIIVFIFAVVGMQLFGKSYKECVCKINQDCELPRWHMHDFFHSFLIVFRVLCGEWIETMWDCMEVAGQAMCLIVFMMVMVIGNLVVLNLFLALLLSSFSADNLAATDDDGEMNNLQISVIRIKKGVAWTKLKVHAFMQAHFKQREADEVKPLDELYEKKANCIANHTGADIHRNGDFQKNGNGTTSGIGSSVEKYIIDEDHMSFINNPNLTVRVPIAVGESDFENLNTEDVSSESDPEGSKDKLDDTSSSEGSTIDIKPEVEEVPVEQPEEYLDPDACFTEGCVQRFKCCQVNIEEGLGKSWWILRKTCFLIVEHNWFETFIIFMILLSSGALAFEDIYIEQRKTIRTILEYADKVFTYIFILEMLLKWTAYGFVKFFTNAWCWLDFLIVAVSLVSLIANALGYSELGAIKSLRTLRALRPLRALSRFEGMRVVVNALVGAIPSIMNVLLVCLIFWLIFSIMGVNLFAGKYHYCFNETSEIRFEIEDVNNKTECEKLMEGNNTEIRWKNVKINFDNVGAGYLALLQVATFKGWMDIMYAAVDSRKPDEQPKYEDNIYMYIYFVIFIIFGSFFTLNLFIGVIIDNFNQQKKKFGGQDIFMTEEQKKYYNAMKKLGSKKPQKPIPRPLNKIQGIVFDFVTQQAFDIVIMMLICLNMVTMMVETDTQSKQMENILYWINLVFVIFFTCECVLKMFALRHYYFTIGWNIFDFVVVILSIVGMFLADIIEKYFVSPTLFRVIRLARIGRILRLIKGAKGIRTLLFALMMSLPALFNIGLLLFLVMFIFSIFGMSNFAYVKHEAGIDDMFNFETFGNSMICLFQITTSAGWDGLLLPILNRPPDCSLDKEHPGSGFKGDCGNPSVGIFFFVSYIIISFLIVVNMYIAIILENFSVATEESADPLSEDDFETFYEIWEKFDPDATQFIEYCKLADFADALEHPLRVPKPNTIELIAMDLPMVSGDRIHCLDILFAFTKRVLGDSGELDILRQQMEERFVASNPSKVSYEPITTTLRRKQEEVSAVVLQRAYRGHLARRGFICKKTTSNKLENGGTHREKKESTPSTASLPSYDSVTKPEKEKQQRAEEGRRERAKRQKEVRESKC

CC(C)C[C@@H]1NC(=O)[C@@H](NC(=O)[C@H](C)N)CSSC[C@@H]2NC(=O)[C@@H]3CSSC[C@@H](C(=O)N[C@@H](CCCNC(=N)N)C(=O)N[C@@H](Cc4ccc(O)cc4)C(=O)N[C@@H](CCCCN)C(=O)N[C@@H](CC(C)C)C(=O)N[C@@H](Cc4ccccc4)C(=O)O)NC(=O)[C@H](Cc4c[nH]c5ccccc45)NC(=O)[C@@H]4CCCN4C(=O)[C@H](Cc4ccc(O)cc4)NC(=O)[C@H](CCCCN)NC(=O)[C@H](Cc4c[nH]c5ccccc45)NC(=O)[C@H](CCC(=O)O)NC(=O)[C@H](CSSC[C@H](NC(=O)[C@H](CO)NC(=O)[C@H](CC(=O)O)NC(=O)[C@H](Cc4c[nH]c5ccccc45)NC(=O)[C@H](CCC(N)=O)NC(=O)CNC1=O)C(=O)N[C@@H](CC(=O)O)C(=O)N1CCC[C@H]1C(=O)N[C@@H](CCCCN)C(=O)N[C@@H](C)C(=O)N[C@@H](CO)C(=O)N[C@@H](CCCCN)C(=O)N3)NC(=O)[C@H](C)NC(=O)[C@H](Cc1ccc(O)cc1)NC(=O)[C@H](CC(N)=O)NC(=O)[C@@H]1CCCN1C2=O [PhlTx1, Phlotoxin-1] (H-ACLGQWDSCDPKASKCCPNYACEWKYPWCRYKLF-OH; disulfide 2-17, 9-22, 16-29; N-terminus and C-terminus assumed)
IC50: > 3 µM
